Test results reported in PubChem BioAssay (NCI).
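Exposure lasted 48 hours, with cells grown in 96-well plates and compounds tested at five concentrations. At the TGI there is no net growth.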

Key:
Experiment in all cases: NCI tumour cell line growth inhibition, 48 h
OVCAR-5 ovarian = system: OVCAR-5 ovarian
RPMI-8226 leukemia = system: RPMI-8226 leukemia
CCRF-CEM leukemia = system: CCRF-CEM leukemia
BT-549 breast = system: BT-549 breast
HCT-116 colon = system: HCT-116 colon
MDA-MB-435 = system: MDA-MB-435
NCI-H460 lung = system: NCI-H460 lung
UO-31 renal = system: UO-31 renal
COLO 205 colon = system: COLO 205 colon
OVCAR-8 ovarian = system: OVCAR-8 ovarian
SNB-19 CNS = system: SNB-19 CNS
SK-MEL-28 melanoma = system: SK-MEL-28 melanoma
HS 578T breast = system: HS 578T breast
M14 melanoma = system: M14 melanoma
PC-3 prostate = system: PC-3 prostate
MCF7 breast = system: MCF7 breast
786-0 renal = system: 786-0 renal
RXF 393 renal = system: RXF 393 renal
EKVX NSCLC = system: EKVX NSCLC
SF-268 CNS = system: SF-268 CNS
UACC-257 melanoma = system: UACC-257 melanoma
SF-539 CNS = system: SF-539 CNS
HCT-15 colon = system: HCT-15 colon
NCI/ADR-RES ovarian = system: NCI/ADR-RES ovarian
MOLT-4 leukemia = system: MOLT-4 leukemia
IGROV1 ovarian = system: IGROV1 ovarian
NCI-H226 lung = system: NCI-H226 lung
OVCAR-4 ovarian = system: OVCAR-4 ovarian
ACHN renal = system: ACHN renal
NCI-H23 lung = system: NCI-H23 lung
UACC-62 melanoma = system: UACC-62 melanoma
SK-OV-3 ovarian = system: SK-OV-3 ovarian
HT29 colon = system: HT29 colon
HL-60(TB) leukemia = system: HL-60(TB) leukemia
KM12 colon = system: KM12 colon
LOX IMVI melanoma = system: LOX IMVI melanoma
SW-620 colon = system: SW-620 colon
TK-10 renal = system: TK-10 renal
A498 renal = system: A498 renal
CAKI-1 renal = system: CAKI-1 renal
T-47D breast = system: T-47D breast
MALME-3M melanoma = system: MALME-3M melanoma
SK-MEL-5 melanoma = system: SK-MEL-5 melanoma
HOP-92 NSCLC = system: HOP-92 NSCLC
U251 CNS = system: U251 CNS
SF-295 CNS = system: SF-295 CNS
MDA-MB-231 breast = system: MDA-MB-231 breast
A549 NSCLC = system: A549 NSCLC
SK-MEL-2 melanoma = system: SK-MEL-2 melanoma
HCC-2998 colon = system: HCC-2998 colon
HOP-62 NSCLC = system: HOP-62 NSCLC
K-562 leukemia = system: K-562 leukemia
DU-145 prostate = system: DU-145 prostate
SNB-75 CNS = system: SNB-75 CNS
OVCAR-3 ovarian = system: OVCAR-3 ovarian

In the case of `O=S(=O)(c1ccccc1)n1c(C(O)c2ccccc2)cc2ccccc21` (stereo not given), the TGI (OVCAR-5 ovarian) is reported as 30.9 µM, the TGI (RPMI-8226 leukemia) is reported as > 100 µM and the TGI (CCRF-CEM leukemia) is reported as 28.9 µM. It also gave a TGI (BT-549 breast) of 32.2 µM, a TGI (HCT-116 colon) of 34.6 µM and a TGI (MDA-MB-435) of 36.4 µM. The TGI (NCI-H460 lung) was > 100 µM, the TGI (UO-31 renal) was 24 µM and the TGI (COLO 205 colon) was 45.5 µM. It also gave a TGI (OVCAR-8 ovarian) of 49.9 µM, a TGI (SNB-19 CNS) of 26.7 µM and a TGI (SK-MEL-28 melanoma) of 39.9 µM. The TGI (HS 578T breast) was 27.9 µM, the TGI (M14 melanoma) was 28.1 µM and the TGI (PC-3 prostate) was 30.2 µM. The TGI (MCF7 breast) was 40.9 µM, the TGI (786-0 renal) was 29.6 µM and the TGI (RXF 393 renal) was 30.5 µM. It also gave a TGI (EKVX NSCLC) of 41.6 µM, a TGI (SF-268 CNS) of 38.5 µM and a TGI (UACC-257 melanoma) of 34.4 µM. The TGI (SF-539 CNS) was 30.8 µM, the TGI (HCT-15 colon) was 61.3 µM and the TGI (NCI/ADR-RES ovarian) was 30.3 µM. The TGI (MOLT-4 leukemia) was > 100 µM, the TGI (IGROV1 ovarian) was 35.4 µM and the TGI (NCI-H226 lung) was 29.3 µM. The TGI (OVCAR-4 ovarian) was 50.2 µM, the TGI (ACHN renal) was 29.1 µM and the TGI (NCI-H23 lung) was 41.9 µM. For the same molecule, the TGI (UACC-62 melanoma) was 28 µM, the TGI (SK-OV-3 ovarian) was 29 µM and the TGI (HT29 colon) was 26.2 µM. The TGI (HL-60(TB) leukemia) was 34.9 µM, the TGI (KM12 colon) was 30.3 µM and the TGI (LOX IMVI melanoma) was > 100 µM. For the same molecule, the TGI (SW-620 colon) was 64.7 µM, the TGI (TK-10 renal) was 33.6 µM and the TGI (A498 renal) was 26.5 µM. It also gave a TGI (CAKI-1 renal) of 47.3 µM, a TGI (T-47D breast) of 65.8 µM and a TGI (MALME-3M melanoma) of 39.2 µM. The TGI (SK-MEL-5 melanoma) was 32.4 µM, the TGI (HOP-92 NSCLC) was 38.4 µM and the TGI (U251 CNS) was 43.7 µM. For the same molecule, the TGI (SF-295 CNS) was 32.2 µM, the TGI (MDA-MB-231 breast) was 49.2 µM and the TGI (A549 NSCLC) was 35.3 µM. The TGI (SK-MEL-2 melanoma) was 31.3 µM, the TGI (HCC-2998 colon) was 33.2 µM and the TGI (HOP-62 NSCLC) was 31.8 µM. For the same molecule, the TGI (K-562 leukemia) was > 100 µM, the TGI (DU-145 prostate) was > 100 µM and the TGI (SNB-75 CNS) was 35.7 µM. For the same molecule, the TGI (OVCAR-3 ovarian) was 30.3 µM.
